According to paper PMC8996404, “The pharmacokinetics of buserelin after intramuscular administration in pigs and cows” (BMC Veterinary Research, 2022):
Where two headings read alike, the source gives them in different places.

How the values were obtained:
[1] = cited from earlier work
From the text: After being approved by the European Medicines Agency (EMA) in 1995 [1], there are some pharmacokinetic studies of buserelin been reported in humans and rats following subcutaneous (s.c.), intranasal (i.n.), or intravenous (i.v.) routes. […] High plasma concentration, high bonding rate, means more drugs cannot across the membrane and barrier. Therefore, binding changes can affect the distribution of drugs. Because protein binding of buserelin is about 15% [2], it is proportional to the body volume and body weight and animals using in this study had larger volume of body water or extracellular water. It has been repo ...

[2] = Plasma pharmacokinetics of buserelin after i.m. administration in cows; format: in vivo; conditions: for MRT: cow, 3 mg per cow
Procedure: The UPLC-MS/MS system (Waters Acquity UPLC and Waters Quattro Premier, Waters Co., USA) and the chromatographic column (Agilent Poroshell 120 EC-C18, 4.6 × 100 mm, 2.7 µm) were used in this study. The separation was performed with 0.1% formic acid in water (mobile phase solvent A) and 0.1% formic acid in acetonitrile (solvent B) with a flow rate of 0.6 mL/min. The gradient elution program was optimized as follow: 75% A (0–0.5 min), 10% A (5–7 min) 75% A (7.1–10 min). The sample was injected at a volume of 5 µL at 30℃. The mass spectrometer was operated in the positive ion detection mode with the capillary voltage set at 5.5 kV and the source temperature was 550 ℃. Others parameters were as follows: nebulizer gas pressure was 55 psi, ion source gas pressure was 60 psi, curtain gas pressure was 30 psi, declustering potential was 68 V, entrance potential was 10 V, and collision cell exit potential was 13 V.
Five healthy adult female Danish Landrance × Yorkshire × Duroc pigs (100–120 days, 50–60 kg, Ningbo Kuangdai Husbandry Co., Ltd. Ningbo China) and five healthy adult female Holstein cows (1.5–2 years, 440–500 kg, Ningbo Milk Group Co., Ltd. Ningbo China) were randomly selected to use in this research. All animals were examined by a local veterinarian with regard to physical, hematologic, and biochemical conditions during the two-week adaptation period. The two protocols used in this study were reviewed and approved by the Institutional Animal Care and Use Committee of China Agricultural University (pigs: 11605–20-D-007; cows: 11605–20-B-003). Buserelin injection solution (0.5 mg/mL, 10 mL) was acquired from Ningbo Sansheng Pharmaceutical Company. In order to avoid introducing bias results from feeding, each animal in the study fasted for approximately 12 h. Each pig received 1 mg buserelin injection solution (about 0.018 mg/kg), and each cow received 3 mg (about 0.0064 mg/kg). During the entire experiment, water was available ad libitum. Adverse symptoms were recorded and evaluated. Blood samples of 5 mL were collected into heparinized tube (pigs: anterior vena cava; cows: vena jugularis interna) at 0, 0.083, 0.167, 0.333, 0.5, 0.75, 1, 1.5, 2, 3, 4, 5, 6, 7, and 8 h after i.m. administration. The blood samples were centrifuged for 5 min at 2775 × g. Plasma samples were stored in -20 ℃ until analysis (within 21 days of collection).
Frozen plasma samples were thawed and vortexed, and 500 µL plasma and 1 mL 0.1% formic acid in acetonitrile were mixed together. After 10 min ultrasonic treatment, the samples were centrifuged for 10 min at 11,100 × g. The upper layer was collected and the remainder was treated twice. These two supernatants were added together, the samples were evaporated via nitrogen gas at 40 ℃, and redissolved in 2.5 mL 0.1% formic acid in acetonitrile-0.1% formic acid in water (1:3 v/v). After filtered through a 0.22 µm microbore cellulose membrane, the samples were collected and bottled to UPLC-MS/MS system for analysis.
Plasma concentrations of buserelin were analyzed using the established method, and the pharmacokinetic parameters were calculated via a non-compartmental analysis model 200 in WinNonlin software (WinNolin 8.1.0 Certara, Pharsight, Mountain View, CA, USA) and expressed in mean ± standard deviation (SD), and no statistical tests were applied.

[3] = Stability of buserelin in pig plasma (autosampler, benchtop, freeze–thaw); format: in vitro ADME; conditions: for Stability, Accuracy Mean ± SD: pig plasma, UPLC-MS/MS
Procedure: (§1) Selectivity has been assessed by comparing the chromatograms of blank plasma samples and those of corresponding items with buserelin to exclude the interfering peaks. The calibration curve was established by spiking the blank matrix with known concentration of buserelin. Limit of detection (LOD) and Limit of quantification (LOQ) were determined as the concentrations of buserelin which produced signal/ noise ratio of 3 and 10, respectively. For linearity of this method, calibration curves were generated by least squares regression method with a weighting factor and regression coefficient. Recovery was determined by comparing the analytical results of the extracted quality control (QC) samples with pure standard solution. The accuracy was assessed as the percentage of the measured concentration to the nominal standard concentration. The precision was expressed by coefficient of variation. Stability was assessed by autosampler, benchtop, freeze–thaw, and stock solution test. The matrix effect was obtained with the area of post-extraction blank plasma samples added with buserelin at two levels with the equivalent concentration standard solutions that added with initiate mobile phase.

[4] = Stability of buserelin in cow plasma (autosampler, benchtop, freeze–thaw); format: in vitro ADME; conditions: UPLC-MS/MS
Procedure: as §1

[5] = dogs, cited from earlier work
From the text: High plasma concentration, high bonding rate, means more drugs cannot across the membrane and barrier. Therefore, binding changes can affect the distribution of drugs. Because protein binding of buserelin is about 15% [2], it is proportional to the body volume and body weight and animals using in this study had larger volume of body water or extracellular water. It has been repo ...

[6] = female, Holstein, im, single i.m. dose 3 mg per cow, plasma, mean ± SD, n = 5
[7] = single i.m. dose 3 mg per cow, plasma, mean ± SD, n = 5

## CCNC(=O)[C@@H]1CCCN1C(=O)[C@H](CCCNC(=N)N)NC(=O)[C@H](CC(C)C)NC(=O)[C@@H](COC(C)(C)C)NC(=O)[C@H](Cc1ccc(O)cc1)NC(=O)[C@H](CO)NC(=O)[C@H](Cc1c[nH]c2ccccc12)NC(=O)[C@H](Cc1cnc[nH]1)NC(=O)[C@@H]1CCC(=O)N1 [buserelin, Buserelin]
[1]; health volunteers, single dose 5 µg s.c. ref 3
  tmax: 0.7 h
[1]; health volunteers, single dose 150 µg i.n. ref 3
  tmax: 0.967 h
[1]; health volunteers, single dose 300 µg i.n. ref 3
  tmax: 0.73 h
[1]; health volunteers, single dose 450 µg i.n. ref 3
  tmax: 0.647 h
[1]; health volunteers, single dose 500 µg i.v. ref 3
  tmax: 0.333 h
[1]; human, regardless of the administration route ref 2, 3
  elimination half-time: 72 to 120 min
[1]; rats (anesthetized), single dose of 0.1 mg/kg i.n. ref 18
  tmax: 1.92 ± 0.42 h
[1]; rats, i.v. ref 1
  rapid initial half time / t1/2: 5 min
[1]; rats, single dose of 6 mg/kg s.c. injection ref 13
  t1/2: 0.7 h
[2]; female, Holstein, plasma, im, single i.m. dose 3 mg per cow, plasma, mean ± SD, n = 5, read-out: MRT0-t
  MRT: 1.85 ± 0.56 h
[2]; female, Holstein, plasma, im, single i.m. dose 3 mg per cow, plasma, mean ± SD, n = 5, read-out: MRT0-∞
  MRT: 2.16 ± 0.7 h
[2]; female, Holstein, im, single i.m. dose 3 mg per cow (about 0.0064 mg/kg), plasma, UPLC-MS/MS, non-compartmental, mean ± SD, n = 5
  tmax: 1.05 ± 0.27 h
[2]; female, Holstein, im, single i.m. dose 3 mg per cow, plasma, 0 to last measurement point, mean ± SD, n = 5
  AUC(0-t): 5.63 ± 1.86 ng·h/mL
[2]; female, Holstein, im, single i.m. dose 3 mg per cow, plasma, UPLC-MS/MS, non-compartmental, mean ± SD, n = 5
  Cmax: 2.68 ± 0.36 ng/mL
[2]; [6]
  AUC(0-inf): 5.99 ± 2.01 ng·h/mL
  CL/F: 9080 mL/min
  Vd/F: 840 ± 175 L
[2]; female, Holstein, im, single i.m. dose 3 mg per cow, plasma, non-compartmental, mean ± SD, n = 5, read-out: t1/2 (elimination half-time) (converted)
  half-life: 1.13 ± 0.3 h
[2]; single i.m. dose 3 mg per cow (about 0.0064 mg/kg), rate of Cmax to dosage, mean ± SD, n = 5
  Cmax/D: 420.35 ± 58.40 ng/mL/mg/kg
[2]; single i.m. dose 3 mg per cow, n = 5
  Adverse effects: No adverse effects were observed
[2]; [7]
  AUMClast: 11.23 ± 6.89 h × h × ng/mL
  ka (absorption rate constant): 0.58 ± 0.17 h⁻¹
[3]; autosampler, concentration 0.5 ng/mL
  Stability, Accuracy Mean ± SD: 0.51 ± 0.04
[3]; autosampler, concentration 20 ng/mL
  Stability, Accuracy Mean ± SD: 19.70 ± 2.32
[3]; benchtop, concentration 0.5 ng/mL
  Stability, Accuracy Mean ± SD: 0.47 ± 0.02
[3]; benchtop, concentration 20 ng/mL
  Stability, Accuracy Mean ± SD: 19.72 ± 1.61
[3]; freeze–thaw, concentration 0.5 ng/mL
  Stability, Accuracy Mean ± SD: 0.51 ± 0.04
[3]; freeze–thaw, concentration 20 ng/mL
  Stability, Accuracy Mean ± SD: 19.95 ± 1.12
[3]; summary statement for pig plasma, cow plasma and stock solution (Table 3)
  Stability during autosampler, benchtop, freeze–thaw, and stock solution test: stable
[4]; autosampler, concentration 0.25 ng/mL
  Stability, Accuracy Mean ± SD: 0.24 ± 0.01
[4]; autosampler, concentration 4 ng/mL
  Stability, Accuracy Mean ± SD: 3.90 ± 0.30
[4]; benchtop, concentration 0.25 ng/mL
  Stability, Accuracy Mean ± SD: 0.25 ± 0.02
[4]; benchtop, concentration 4 ng/mL
  Stability, Accuracy Mean ± SD: 3.87 ± 0.41
[4]; freeze–thaw, concentration 0.25 ng/mL
  Stability, Accuracy Mean ± SD: 0.26 ± 0.02
[4]; freeze–thaw, concentration 4 ng/mL
  Stability, Accuracy Mean ± SD: 3.95 ± 0.34
[5]; 5 mg per dog i.v. injection ref 18
  clearance: 1.7 ± 0.10 mL/min/kg
[5]; s.c. at a dose of 3.3 mg ref 18
  tmax: 4 h
[5]; single dose 5 mg i.v. ref 18
  Vd: 0.0501 ± 0.0024 L/kg
[5]; single dose of 5 mg i.v. injection ref 18
  t1/2: 0.94 ± 0.0163 h
